Reference: ChEMBL document CHEMBL3232923, “Illudins C2 and C3 stimulate lipolysis in 3T3-L1 adipocytes and suppress adipogenesis in 3T3-L1 preadipocytes” (J Nat Prod, 2014)
Active and inactive are the calls of the source. No cut-off for these calls is given here.

Columns and labels:
3T3-L1 [1] = assay: Stimulation of lipolysis in mouse 3T3L1 cells after 48 hrs by glycerol release assay; type: functional, cell-based
[2] = Reduction of […] mRNA expression in mouse 3T3L1 cells after 24 hrs by RT-PCR analysis; type: functional, cell-based; settings: 3T3-L1
[3] = Cytotoxicity against mouse 3T3L1 cells at 1 to 10 uM after 48 hrs by MTT assay; type: cell-based; settings: 3t3-l1, 48 h
3T3-L1 [4] = assay: Induction of AMPK-mediated HSL phosphorylation at S565 in mouse 3T3L1 cells at 10 uM after 24 to 48 hrs by immunoblotting; type: cell-based
3T3-L1 [5] = assay: Inhibition of mouse 3T3L1 cell differentiation assessed as reduction in PPARgamma protein level after 8 days by immunoblotting; type: functional, cell-based
3T3-L1 [6] = assay: Induction of PKA-mediated HSL phosphorylation at S563 in mouse 3T3L1 cells at 10 uM after 24 to 48 hrs by immunoblotting; type: cell-based
3T3-L1 [7] = assay: Inhibition of mouse 3T3L1 cell differentiation assessed as reduction in intracellular lipid accumulation after 8 days by Oil Red O staining method; type: functional, cell-based
3T3-L1 [8] = assay: Reduction of lipid content in mature mouse 3T3L1 cells after 7 days by Oil Red O staining method; type: functional, cell-based
3T3-L1 [9] = assay: Stimulation of lipolysis in mouse 3T3L1 cells after 48 hrs by glycerol release assay in presence of JNK inhibitor SP600125; type: functional, cell-based
3T3-L1 [10] = assay: Stimulation of lipolysis in mouse 3T3L1 cells after 48 hrs by glycerol release assay in presence of p38 MAPK inhibitor SB203580; type: functional, cell-based
[11] = Reduction of HSL mRNA expression in mouse 3T3L1 cells at 1 to 10 uM after 24 hrs by RT-PCR analysis; type: functional, cell-based; settings: 3T3-L1
[12] = Reduction of […] mRNA expression in mouse 3T3L1 cells at 1 to 10 uM after 24 hrs by […]; type: functional, cell-based; settings: 3T3-L1
3T3-L1 [13] = assay: Reduction of perilipin protein level in mouse 3T3L1 cells at 10 uM after 24 to 48 hrs by immunoblotting; type: functional, cell-based
3T3-L1 [14] = assay: Reduction of […] protein level in mouse 3T3L1 cells at 10 uM after 24 to 48 hrs by immunoblotting; type: functional, cell-based
3T3-L1 [15] = assay: Stimulation of lipolysis in mouse 3T3L1 cells after 48 hrs by glycerol release assay in presence of PKA inhibitor H89; type: functional, cell-based
3T3-L1 [16] = assay: Inhibition of mouse 3T3L1 cell differentiation assessed as reduction in EBPalpha protein level after 8 days by immunoblotting; type: functional, cell-based
3T3-L1 [17] = assay: Reduction of HSL protein level in mouse 3T3L1 cells at 10 uM after 24 to 48 hrs by immunoblotting; type: functional, cell-based
3T3-L1 [18] = assay: Inhibition of mouse 3T3L1 cell differentiation assessed as reduction in PPARgamma gene expression after 2 days by RT-PCR analysis; type: functional, cell-based
3T3-L1 [19] = assay: Stimulation of lipolysis in mouse 3T3L1 cells at 10 uM after 48 hrs by glycerol release assay; type: functional, cell-based
3T3-L1 [20] = assay: Inhibition of mouse 3T3L1 cell differentiation assessed as reduction in EBPalpha gene expression after 2 days by RT-PCR analysis; type: functional, cell-based
3T3-L1 [21] = assay: Stimulation of lipolysis in mouse 3T3L1 cells after 48 hrs by glycerol release assay in presence of ERK inhibitor PD98059; type: functional, cell-based
3T3-L1 [22] = assay: Induction of PKA-mediated HSL phosphorylation at S660 in mouse 3T3L1 cells at 10 uM after 24 to 48 hrs by immunoblotting; type: cell-based
[23] = Reduction of perilipin mRNA expression in mouse 3T3L1 cells after 24 hrs by RT-PCR analysis; type: functional, cell-based; settings: 3T3-L1
3T3-L1 [24] = assay: Stimulation of lipolysis in mouse 3T3L1 cells at 0.25 mM after 48 hrs by glycerol release assay; type: functional, cell-based

| Compound | Activity (3T3-L1 [1]) | Activity [2] | Activity [3] | Activity (3T3-L1 [4]) | inhibition (3T3-L1 [5]) | Activity (3T3-L1 [6]) | inhibition (3T3-L1 [7]) | Activity (3T3-L1 [8]) | Activity (3T3-L1 [9]) | Activity (3T3-L1 [10]) | Activity [11] | Activity [12] | Activity (3T3-L1 [13]) | Activity (3T3-L1 [14]) | Activity (3T3-L1 [15]) | inhibition (3T3-L1 [16]) | Activity (3T3-L1 [17]) | inhibition (3T3-L1 [18]) | Activity (3T3-L1 [19]) | inhibition (3T3-L1 [20]) | also measured |
| --- | --- | --- | --- | --- | --- | --- | --- | --- | --- | --- | --- | --- | --- | --- | --- | --- | --- | --- | --- | --- | --- |
| C=C1C(=O)C2=C(C[C@](C)(CO)C2)[C@](C)(O)C12CC2 | Dose-dependent effect | Dose-dependent effect | Non-toxic | inactive | Dose-dependent effect | Active | Dose-dependent effect | Dose-dependent effect | Active | Active | Active | Active | Active | Active | inactive | Dose-dependent effect | Active | Active | Active | Active | Activity (3T3-L1 [21]): inactive; Activity (3T3-L1 [22]): Active; Activity [23]: Dose-dependent effect |
| C=C1C(=O)C2=C(C[C@@](C)(CO)C2)[C@](C)(O)C12CC2 | Dose-dependent effect | Dose-dependent effect | Non-toxic | inactive | Dose-dependent effect | Active | Dose-dependent effect | Dose-dependent effect | Active | Active | Active | Active | Active | Active | inactive | Dose-dependent effect | Active | Active | Active | Active | Activity (3T3-L1 [21]): inactive; Activity (3T3-L1 [22]): Active; Activity [23]: Dose-dependent effect |
| CC(C)Cn1c(=O)n(C)c(=O)c2nc[nH]c21 | – | – | – | – | – | – | – | – | – | – | – | – | – | – | – | – | – | – | – | – | Activity (3T3-L1 [24]): Active |
| CC(C)NCC(O)c1ccc(O)c(O)c1 (stereo not drawn) | – | – | – | – | – | – | – | – | – | – | – | – | – | – | – | – | – | – | Active | – | – |
